Where two headings read alike, the source gives them in different places.

This is an account of results in article PMC8550792, “Evolution of kinase polypharmacology across HSP90 drug discovery” (Cell Chemical Biology, 2021).

Holding throughout (experiment): biochemical
Type in all cases: biochemical

For test [1], the target named is T1, 382 unique human kinases (Homo sapiens, UniProt P00533, C797S).
T1 construct: purchased Reaction Biology (HotSpot contract assay)
The following applies: EGFR (C797S), 10 uM; for remaining activity at 10 µM: read-out: % Enzyme Activity (relative to DMSO controls).

In test [2] the target is T2, 382 unique human kinases (Homo sapiens, UniProt P07949, E762Q).
T2 construct: purchased Reaction Biology (HotSpot contract assay)
T2 sequence (P07949 29-1114 E762Q): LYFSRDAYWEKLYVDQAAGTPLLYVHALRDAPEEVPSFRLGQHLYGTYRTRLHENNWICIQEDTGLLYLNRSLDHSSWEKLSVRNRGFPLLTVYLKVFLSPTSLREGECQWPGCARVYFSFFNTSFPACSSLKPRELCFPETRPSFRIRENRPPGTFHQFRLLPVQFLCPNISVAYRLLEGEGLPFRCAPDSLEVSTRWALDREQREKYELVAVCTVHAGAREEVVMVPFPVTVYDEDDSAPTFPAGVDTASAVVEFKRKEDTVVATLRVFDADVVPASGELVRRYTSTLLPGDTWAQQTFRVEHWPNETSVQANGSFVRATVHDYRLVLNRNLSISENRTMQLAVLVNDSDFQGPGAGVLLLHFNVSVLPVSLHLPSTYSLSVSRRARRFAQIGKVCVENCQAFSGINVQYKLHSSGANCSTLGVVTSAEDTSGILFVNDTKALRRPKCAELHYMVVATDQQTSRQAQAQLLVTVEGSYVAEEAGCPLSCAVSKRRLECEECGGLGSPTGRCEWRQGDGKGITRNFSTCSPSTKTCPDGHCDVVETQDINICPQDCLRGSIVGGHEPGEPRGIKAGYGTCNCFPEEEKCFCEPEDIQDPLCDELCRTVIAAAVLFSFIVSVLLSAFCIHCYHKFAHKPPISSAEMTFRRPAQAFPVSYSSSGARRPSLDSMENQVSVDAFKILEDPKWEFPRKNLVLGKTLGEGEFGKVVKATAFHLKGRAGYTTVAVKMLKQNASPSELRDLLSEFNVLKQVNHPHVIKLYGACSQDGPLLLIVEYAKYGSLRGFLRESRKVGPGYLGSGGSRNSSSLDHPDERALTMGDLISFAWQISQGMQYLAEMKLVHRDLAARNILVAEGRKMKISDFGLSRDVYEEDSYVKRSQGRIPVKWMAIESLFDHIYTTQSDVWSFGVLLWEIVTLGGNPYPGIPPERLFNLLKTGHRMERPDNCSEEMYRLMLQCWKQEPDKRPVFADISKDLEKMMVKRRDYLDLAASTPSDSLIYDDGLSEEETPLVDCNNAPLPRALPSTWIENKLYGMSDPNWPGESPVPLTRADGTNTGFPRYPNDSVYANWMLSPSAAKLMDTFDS
The following applies: compound 10 uM; for remaining activity at 10 µM: read-out: % Enzyme Activity (relative to DMSO controls).

For test [3], the target named is T3, 382 unique human kinases (Homo sapiens, UniProt P07949, V804L).
T3 construct: purchased Reaction Biology (HotSpot contract assay)
T3 sequence (P07949 29-1114 V804L): as the sequence (P07949 29-1114 E762Q) above, with Q734E, V776L counted along it
The conditions noted are these: RET (V804L), 10 uM; for remaining activity at 10 µM: read-out: % Enzyme Activity (relative to DMSO controls).

In test [4] the target is T4, 382 unique human kinases (Homo sapiens, UniProt P25098).
T4 construct: purchased Reaction Biology (HotSpot contract assay)
T4 sequence (P25098 1-689): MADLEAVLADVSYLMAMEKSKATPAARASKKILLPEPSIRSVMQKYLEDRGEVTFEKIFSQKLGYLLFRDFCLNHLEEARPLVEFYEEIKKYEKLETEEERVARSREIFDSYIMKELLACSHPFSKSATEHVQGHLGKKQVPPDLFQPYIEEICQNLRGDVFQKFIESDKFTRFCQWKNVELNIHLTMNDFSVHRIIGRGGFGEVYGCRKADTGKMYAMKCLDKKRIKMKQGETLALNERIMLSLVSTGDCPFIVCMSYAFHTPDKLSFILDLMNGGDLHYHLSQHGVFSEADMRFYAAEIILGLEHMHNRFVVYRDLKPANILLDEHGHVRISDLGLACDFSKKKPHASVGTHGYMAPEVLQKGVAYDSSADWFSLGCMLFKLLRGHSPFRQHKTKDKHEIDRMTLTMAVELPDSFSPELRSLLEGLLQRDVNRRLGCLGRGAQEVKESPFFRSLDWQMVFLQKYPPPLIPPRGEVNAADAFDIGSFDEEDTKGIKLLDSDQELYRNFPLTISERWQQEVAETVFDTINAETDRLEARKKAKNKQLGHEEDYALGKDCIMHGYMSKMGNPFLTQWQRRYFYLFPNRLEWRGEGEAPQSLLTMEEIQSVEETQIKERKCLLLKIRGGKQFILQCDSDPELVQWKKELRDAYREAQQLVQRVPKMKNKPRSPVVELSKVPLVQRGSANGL
The conditions noted are these: GRK2, compound at 10 uM, duplicate values; for remaining activity at 10 µM: read-out: % Enzyme Activity (relative to DMSO controls).

The target of test [5] is T5, 382 unique human kinases (Homo sapiens, UniProt Q9UKI8).
T5 construct: purchased Reaction Biology (HotSpot contract assay)
T5 sequence (Q9UKI8 1-766): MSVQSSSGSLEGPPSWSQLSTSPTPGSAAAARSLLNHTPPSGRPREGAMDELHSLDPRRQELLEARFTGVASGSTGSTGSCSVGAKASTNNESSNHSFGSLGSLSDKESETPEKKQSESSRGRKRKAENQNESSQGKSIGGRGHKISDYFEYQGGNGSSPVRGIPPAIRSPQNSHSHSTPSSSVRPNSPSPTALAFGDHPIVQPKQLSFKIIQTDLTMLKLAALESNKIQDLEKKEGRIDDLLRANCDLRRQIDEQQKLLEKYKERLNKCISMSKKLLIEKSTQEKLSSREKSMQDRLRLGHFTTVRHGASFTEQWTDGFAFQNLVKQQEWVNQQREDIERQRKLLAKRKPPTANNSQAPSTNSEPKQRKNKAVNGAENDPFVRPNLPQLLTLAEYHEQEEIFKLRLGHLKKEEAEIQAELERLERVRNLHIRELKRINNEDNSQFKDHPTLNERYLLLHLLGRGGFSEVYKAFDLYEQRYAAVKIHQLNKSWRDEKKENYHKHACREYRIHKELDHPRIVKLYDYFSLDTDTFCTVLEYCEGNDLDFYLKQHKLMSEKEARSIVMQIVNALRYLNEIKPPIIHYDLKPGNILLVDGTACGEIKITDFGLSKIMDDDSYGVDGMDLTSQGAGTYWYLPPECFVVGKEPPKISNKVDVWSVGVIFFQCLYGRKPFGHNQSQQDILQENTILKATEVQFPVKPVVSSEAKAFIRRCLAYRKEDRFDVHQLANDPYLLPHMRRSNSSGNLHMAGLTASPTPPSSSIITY
The following applies: TLK1, 10 uM; for remaining activity at 10 µM: read-out: % Enzyme Activity (relative to DMSO controls).

The target of test [6] is T6, 382 unique human kinases (Homo sapiens, UniProt P10721, V559D).
T6 construct: purchased Reaction Biology (HotSpot contract assay)
T6 sequence (P10721 26-976 V559D): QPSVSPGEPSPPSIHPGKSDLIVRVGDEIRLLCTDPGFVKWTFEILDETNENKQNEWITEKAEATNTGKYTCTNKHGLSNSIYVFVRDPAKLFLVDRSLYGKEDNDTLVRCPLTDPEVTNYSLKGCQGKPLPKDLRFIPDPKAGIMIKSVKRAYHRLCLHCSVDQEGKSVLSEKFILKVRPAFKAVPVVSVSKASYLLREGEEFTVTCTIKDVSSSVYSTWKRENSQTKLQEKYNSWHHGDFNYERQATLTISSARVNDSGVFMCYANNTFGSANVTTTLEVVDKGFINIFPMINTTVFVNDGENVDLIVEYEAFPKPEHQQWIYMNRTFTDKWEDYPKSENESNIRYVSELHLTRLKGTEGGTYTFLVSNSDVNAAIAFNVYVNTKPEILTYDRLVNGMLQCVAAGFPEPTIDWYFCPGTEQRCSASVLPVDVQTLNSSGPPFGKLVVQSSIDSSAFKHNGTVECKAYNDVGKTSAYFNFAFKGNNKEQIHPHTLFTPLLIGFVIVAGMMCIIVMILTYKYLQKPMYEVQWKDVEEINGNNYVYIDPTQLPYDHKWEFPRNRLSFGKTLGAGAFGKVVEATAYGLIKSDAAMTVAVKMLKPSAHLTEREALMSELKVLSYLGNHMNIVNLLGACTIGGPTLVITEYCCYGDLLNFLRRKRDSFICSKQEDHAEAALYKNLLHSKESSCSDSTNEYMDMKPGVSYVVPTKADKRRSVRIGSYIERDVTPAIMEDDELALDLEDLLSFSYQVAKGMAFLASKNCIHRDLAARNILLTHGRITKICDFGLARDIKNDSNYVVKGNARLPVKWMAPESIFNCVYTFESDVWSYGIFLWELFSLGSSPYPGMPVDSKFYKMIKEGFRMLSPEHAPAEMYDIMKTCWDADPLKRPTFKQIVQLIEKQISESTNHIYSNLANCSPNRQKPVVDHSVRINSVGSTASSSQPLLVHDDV
The conditions noted are these: c-Kit (V559D), [ATP] 20 µM, compound 10 uM; for remaining activity at 10 µM: read-out: % Enzyme Activity (relative to DMSO controls).

In test [7] the target is T7, 382 unique human kinases (Homo sapiens, UniProt P41743).
T7 construct: purchased Reaction Biology (HotSpot contract assay)
T7 sequence (P41743 1-596): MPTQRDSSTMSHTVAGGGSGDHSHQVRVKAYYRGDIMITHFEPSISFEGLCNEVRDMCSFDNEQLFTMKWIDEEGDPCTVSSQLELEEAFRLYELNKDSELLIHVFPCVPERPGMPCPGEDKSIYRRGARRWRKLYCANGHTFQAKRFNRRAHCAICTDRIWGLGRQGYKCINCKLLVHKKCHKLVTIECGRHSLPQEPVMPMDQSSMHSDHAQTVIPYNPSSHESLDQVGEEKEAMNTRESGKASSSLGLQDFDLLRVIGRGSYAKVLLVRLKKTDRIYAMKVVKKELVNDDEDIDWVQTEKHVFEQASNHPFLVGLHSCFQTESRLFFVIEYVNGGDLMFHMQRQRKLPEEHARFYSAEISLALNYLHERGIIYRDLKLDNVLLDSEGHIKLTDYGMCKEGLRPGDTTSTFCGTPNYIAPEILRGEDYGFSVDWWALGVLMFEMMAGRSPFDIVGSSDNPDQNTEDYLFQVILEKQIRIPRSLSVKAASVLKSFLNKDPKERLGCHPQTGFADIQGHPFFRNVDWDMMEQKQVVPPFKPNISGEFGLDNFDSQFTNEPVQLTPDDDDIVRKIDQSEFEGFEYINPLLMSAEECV
The conditions noted are these: PKCiota, 10 uM; for remaining activity at 10 µM: read-out: % Enzyme Activity (relative to DMSO controls).

Test [8] has as its target T8, 382 unique human kinases (Homo sapiens, UniProt Q15746).
T8 construct: purchased Reaction Biology (HotSpot contract assay)
The conditions noted are these: MLCK/MYLK, [ATP] 30 µM, compound 10 uM; for remaining activity at 10 µM: read-out: % Enzyme Activity (relative to DMSO controls).

Test [9] deals with T9, 382 unique human kinases (Homo sapiens, UniProt Q16288).
T9 construct: purchased Reaction Biology (HotSpot contract assay)
T9 sequence (Q16288 32-839): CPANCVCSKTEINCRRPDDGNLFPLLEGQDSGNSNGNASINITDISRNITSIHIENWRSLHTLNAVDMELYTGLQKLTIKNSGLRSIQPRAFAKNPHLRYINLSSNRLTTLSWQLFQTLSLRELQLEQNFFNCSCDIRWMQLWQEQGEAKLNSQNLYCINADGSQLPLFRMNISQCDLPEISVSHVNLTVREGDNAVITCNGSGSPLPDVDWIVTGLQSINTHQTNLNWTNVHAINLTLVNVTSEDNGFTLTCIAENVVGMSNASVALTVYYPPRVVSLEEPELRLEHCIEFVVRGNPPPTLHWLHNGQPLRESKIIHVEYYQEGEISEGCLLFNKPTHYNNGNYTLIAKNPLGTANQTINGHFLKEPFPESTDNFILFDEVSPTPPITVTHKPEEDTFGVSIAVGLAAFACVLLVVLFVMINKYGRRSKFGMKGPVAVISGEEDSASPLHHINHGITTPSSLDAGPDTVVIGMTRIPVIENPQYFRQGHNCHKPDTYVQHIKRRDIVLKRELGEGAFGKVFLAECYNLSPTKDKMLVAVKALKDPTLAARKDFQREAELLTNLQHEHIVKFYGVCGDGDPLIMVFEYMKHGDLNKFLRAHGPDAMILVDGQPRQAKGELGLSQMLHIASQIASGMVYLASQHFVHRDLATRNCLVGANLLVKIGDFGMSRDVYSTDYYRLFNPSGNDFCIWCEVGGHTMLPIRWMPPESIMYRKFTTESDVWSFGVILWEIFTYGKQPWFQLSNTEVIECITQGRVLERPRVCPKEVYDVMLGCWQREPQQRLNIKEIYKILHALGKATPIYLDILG
The following applies: TRKC, [ATP] 100 µM.

Test [10] addresses T10, 382 unique human kinases (Homo sapiens, UniProt Q16654).
T10 construct: purchased Reaction Biology (HotSpot contract assay)
The following applies: PDK4/PDKH4, [ATP] 30 µM.

For test [11], the target named is T11, 382 unique human kinases (Homo sapiens, UniProt Q9UM73, F1174S).
T11 construct: purchased Reaction Biology (HotSpot contract assay)
T11 sequence (Q9UM73 19-1620 F1174S): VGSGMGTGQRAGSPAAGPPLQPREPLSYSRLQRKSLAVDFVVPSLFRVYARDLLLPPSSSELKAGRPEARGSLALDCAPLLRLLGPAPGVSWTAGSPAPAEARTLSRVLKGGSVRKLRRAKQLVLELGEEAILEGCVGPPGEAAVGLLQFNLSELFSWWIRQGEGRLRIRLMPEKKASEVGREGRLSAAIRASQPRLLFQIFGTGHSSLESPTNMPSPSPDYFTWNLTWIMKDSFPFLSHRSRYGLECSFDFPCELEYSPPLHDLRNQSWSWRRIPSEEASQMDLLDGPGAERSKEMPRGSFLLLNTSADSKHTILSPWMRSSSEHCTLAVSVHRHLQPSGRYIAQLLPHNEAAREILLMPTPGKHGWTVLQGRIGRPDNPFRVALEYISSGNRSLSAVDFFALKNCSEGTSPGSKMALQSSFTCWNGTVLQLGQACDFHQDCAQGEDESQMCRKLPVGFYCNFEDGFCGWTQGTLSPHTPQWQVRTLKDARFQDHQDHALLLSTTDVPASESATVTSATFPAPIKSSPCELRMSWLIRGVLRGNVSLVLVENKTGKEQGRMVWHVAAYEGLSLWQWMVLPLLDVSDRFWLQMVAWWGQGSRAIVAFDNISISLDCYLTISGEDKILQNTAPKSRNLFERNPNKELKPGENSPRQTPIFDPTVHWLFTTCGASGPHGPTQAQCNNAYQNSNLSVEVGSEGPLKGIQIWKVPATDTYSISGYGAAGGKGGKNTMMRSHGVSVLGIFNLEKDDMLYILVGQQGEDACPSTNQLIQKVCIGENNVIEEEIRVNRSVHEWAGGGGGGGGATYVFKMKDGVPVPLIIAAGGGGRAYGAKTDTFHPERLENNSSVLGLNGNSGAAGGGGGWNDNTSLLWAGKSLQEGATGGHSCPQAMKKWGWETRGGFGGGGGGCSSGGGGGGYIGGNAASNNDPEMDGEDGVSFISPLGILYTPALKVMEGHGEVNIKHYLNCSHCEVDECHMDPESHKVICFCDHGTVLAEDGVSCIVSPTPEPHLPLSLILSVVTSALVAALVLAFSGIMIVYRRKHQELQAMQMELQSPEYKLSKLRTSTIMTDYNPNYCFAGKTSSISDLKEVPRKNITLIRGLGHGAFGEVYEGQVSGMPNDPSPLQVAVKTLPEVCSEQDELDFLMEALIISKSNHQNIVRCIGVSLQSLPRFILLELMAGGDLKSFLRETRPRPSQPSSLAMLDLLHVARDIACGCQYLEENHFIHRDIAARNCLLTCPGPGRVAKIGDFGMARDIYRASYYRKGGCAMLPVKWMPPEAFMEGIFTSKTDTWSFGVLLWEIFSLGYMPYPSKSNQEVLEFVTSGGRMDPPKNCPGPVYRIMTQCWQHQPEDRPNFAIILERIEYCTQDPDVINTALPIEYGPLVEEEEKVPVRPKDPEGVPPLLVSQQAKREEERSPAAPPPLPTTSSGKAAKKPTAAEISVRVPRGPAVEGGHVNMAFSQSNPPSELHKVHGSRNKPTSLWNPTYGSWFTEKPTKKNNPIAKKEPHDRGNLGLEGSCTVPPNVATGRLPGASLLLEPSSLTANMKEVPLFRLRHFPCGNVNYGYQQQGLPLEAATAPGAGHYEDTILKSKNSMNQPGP
The following applies: ALK (F1174S), [ATP] 20 µM, compound 10 uM; for remaining activity at 10 µM: read-out: % Enzyme Activity (relative to DMSO controls).

The mark [12] stands for this setting: compound 1 uM, read-out: % Enzyme Activity (relative to DMSO controls).
The mark [13] stands for this setting: compound 10 uM, read-out: % Enzyme Activity (relative to DMSO controls).

T10 sequence (Q16654 whole entry): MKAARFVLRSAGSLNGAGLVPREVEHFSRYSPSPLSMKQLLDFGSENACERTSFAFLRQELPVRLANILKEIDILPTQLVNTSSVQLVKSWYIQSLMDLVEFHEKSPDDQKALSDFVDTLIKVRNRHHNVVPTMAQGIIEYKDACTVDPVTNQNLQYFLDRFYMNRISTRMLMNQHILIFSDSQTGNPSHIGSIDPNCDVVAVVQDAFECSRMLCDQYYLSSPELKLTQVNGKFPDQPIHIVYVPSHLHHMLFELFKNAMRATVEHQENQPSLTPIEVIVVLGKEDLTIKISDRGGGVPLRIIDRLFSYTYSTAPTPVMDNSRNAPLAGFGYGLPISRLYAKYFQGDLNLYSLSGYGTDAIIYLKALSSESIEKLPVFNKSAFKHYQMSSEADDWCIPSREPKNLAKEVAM

Regarding `CC(C)c1cc(-c2n[nH]c(=O)n2-c2ccc3c(ccn3C)c2)c(O)cc1O` [Ganetespib (STA9090)], the remaining activity at 10 µM came to 70.9% on 382 unique human kinases [1]; 94.2% at 382 unique human kinases [2] ([…]); 93.8% at 382 unique human kinases [2] (kinase RET (E762Q)); 78.5% at 382 unique human kinases [3]; 104% on 382 unique human kinases [4]; 65.8% on 382 unique human kinases [5].
`CC(C)c1cc(-c2n[nH]c(=O)n2-c2ccc3c(ccn3C)c2)c(O)cc1O` [Ganetespib]: the remaining activity at 10 µM at 382 unique human kinases [6] stood at 40.7%; at 382 unique human kinases [7], 94.9%; at 382 unique human kinases [8], 38.6%; on 382 unique human kinases [9] (setting [13]) it was 7.62%; at 382 unique human kinases [10] (setting [13]), 6.83%; on 382 unique human kinases [11], 50.7%. The remaining activity at 1 µM was 30.6% at 382 unique human kinases [9] (setting [12]) and 26.8% on 382 unique human kinases [10] (setting [12]).
For `CCNC(=O)c1noc(-c2cc(C(C)C)c(O)cc2O)c1-c1ccc(CN2CCOCC2)cc1` [Luminespib (AUY-922)], the “% Enzyme Activity (relative to DMSO controls)” value at 382 unique human kinases [1] was determined as 99.85%; on 382 unique human kinases [2] (kinase RET (E762Q)), 89.64%; at 382 unique human kinases [3], 104.44%; at 382 unique human kinases [4], 104.97%; at 382 unique human kinases [5] it was 84.15%. The remaining activity at 10 µM was found to be 103% on 382 unique human kinases [1]; 96.6% at 382 unique human kinases [2] (kinase RET (E762Q)); 106% at 382 unique human kinases [3]; 106% at 382 unique human kinases [4]; 86.2% on 382 unique human kinases [5].
In the case of `CCNC(=O)c1noc(-c2cc(C(C)C)c(O)cc2O)c1-c1ccc(CN2CCOCC2)cc1` [Luminespib], the “% Enzyme Activity (relative to DMSO controls)” value was 69.57% at 382 unique human kinases [6]; 94.98% on 382 unique human kinases [7]; 95.43% on 382 unique human kinases [8]; 94.48% on 382 unique human kinases [9] (compound 10 uM); 27.75% at 382 unique human kinases [10] (compound 10 uM); 97.77% on 382 unique human kinases [11]. Also, the remaining activity at 10 µM on 382 unique human kinases [6] is 69.6%; at 382 unique human kinases [7] it was 96%; on 382 unique human kinases [8], 97.5%; on 382 unique human kinases [9] (setting [13]), 96.8%; at 382 unique human kinases [10] (setting [13]) it was 29.9%; on 382 unique human kinases [11], 98.7%.
